Patent US7538098B2, “19-nor-vitamin D analogs with 1,2 or 3,2 heterocyclic ring” (Wisconsin Alumni Research Foundation, priority 2006, dated 2009)
“Also recorded” adds a separate entry of the source.

What was measured:
[1] = system: 24-hydroxylase (24Ohase) gene promoter in ROS 17/2.8 (bone) cells; assay: In vitro transcription assay (luciferase reporter); assay type: cell-based; details: FIG. 3; for EC50: 24-hydroxylase promoter luciferase reporter, read-out: EC50, transcriptional activity in bone cells; for Transcriptional activity, result in words: 24-hydroxylase (CYP-24) promoter luciferase reporter
Procedure: Transcription activity was measured in ROS 17/2.8 (bone) cells that were stably transfected with a 24-hydroxylase (24Ohase) gene promoter upstream of a luciferase reporter gene (Arbour et al., 1998). Cells were given a range of doses. Sixteen hours after dosing the cells were harvested and luciferase activities were measured using a luminometer. RLU=relative luciferase units

[2] = system: Human promyelocytic leukemia (HL60) cells; assay: HL-60 differentiation (nitro blue tetrazolium reduction); assay type: cell-based; details: FIG. 2; for EC50: Homo sapiens, HL-60
Procedure: The study drugs were dissolved in ethanol and the concentrations determined using UV spectrophotometry. Serial dilutions were prepared so that a range of drug concentrations could be tested without changing the final concentration of ethanol (≦0.2%) present in the cell cultures.
Human promyelocytic leukemia (HL60) cells were grown in RPMI-1640 medium containing 10% fetal bovine serum. The cells were incubated at 37° C. in the presence of 5% CO2.
HL60 cells were plated at 1.2×10^5 cells/ml. Eighteen hours after plating, cells in duplicate were treated with drug. Four days later, the cells were harvested and a nitro blue tetrazolium reduction assay was performed (Collins et al., 1979; J. Exp. Med. 149:969-974). The percentage of differentiated cells was determined by counting a total of 200 cells and recording the number that contained intracellular black-blue formazan deposits. Verification of differentiation to monocytic cells was determined by measuring phagocytic activity (data not shown).

D-deficient CD-1 mice = assay: Bone calcium mobilization, 1st in vivo study (D-deficient mice); details: for Bone calcium mobilization activity (serum calcium change), overall: single intraperitoneal injection, D-deficient CD-1 mice, FIG. 4
Procedure: Female, CD-1 mice (6 weeks old) were purchased from Harlan Sprague-Dawley. Upon arrival, the animals were placed in a room with filtered lighting and fed a purified, D-deficient diet (Suda et al 1970 J. Nutrition) for 17 weeks. […] Serum calcium was measured by diluting with 0.1% lanthum chloride and reading the absorbance using an atomic absorption spectrometer. The change in serum calcium from pre-dose values (baseline) is reported.
(§1) In vivo data were analyzed by one-way ANOVA followed by pairwise comparisons when significant overall differences were detected. Post-hoc analyses includes, Tukey's, Scheffe's, and Fisher's LSD tests. Only differences (p<0.05) that were present in two out of the three post-hoc tests were considered significant.
Calcium mobilization from bone in vitamin D-deficient animals.

[3] = biological target: T1, full-length recombinant rat vitamin D receptor (Rattus norvegicus, UniProt P13053); assay: Vitamin D receptor competitive binding with [3H]-1,25(OH)2D3; details: FIG. 1; for Ki: full-length recombinant rat VDR, read-out: Ki, competition with [3H]-1,25(OH)2D3 for binding to the vitamin D receptor
T1 construct: Full-length recombinant rat receptor was expressed in E. coli BL21 (DE3) Codon Plus RIL cells; histidine tag (C); made in house; host or cells: E. coli BL21 (DE3) Codon Plus RIL
T1 sequence (P13053 1-423): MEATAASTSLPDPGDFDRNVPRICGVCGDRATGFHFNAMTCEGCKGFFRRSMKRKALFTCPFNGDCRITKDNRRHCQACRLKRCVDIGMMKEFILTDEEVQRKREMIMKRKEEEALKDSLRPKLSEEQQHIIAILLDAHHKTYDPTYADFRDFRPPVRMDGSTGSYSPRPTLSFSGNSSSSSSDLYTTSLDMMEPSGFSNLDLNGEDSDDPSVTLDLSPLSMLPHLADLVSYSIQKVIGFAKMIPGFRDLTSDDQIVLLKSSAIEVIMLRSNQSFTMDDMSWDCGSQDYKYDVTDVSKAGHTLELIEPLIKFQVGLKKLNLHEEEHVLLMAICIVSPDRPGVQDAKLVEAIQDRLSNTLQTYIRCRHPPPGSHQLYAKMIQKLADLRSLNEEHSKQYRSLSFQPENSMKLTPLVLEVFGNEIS
Procedure: Full-length recombinant rat receptor was expressed in E. coli BL21 (DE3) Codon Plus RIL cells and purified to homogeneity using two different column chromatography systems. The first system was a nickel affinity resin that utilizes the C-terminal histidine tag on this protein. The protein that was eluted from this resin was further purified using ion exchange chromatography (S-Sepharose
Fast Flow). Aliquots of the purified protein were quick frozen in liquid nitrogen and stored at −80° C. until use. For use in binding assays, the protein was diluted in TEDK50 (50 mM Tris, 1.5 mM EDTA, pH7.4, 5 mM DTT, 150 mM KCI) with 0.1% Chaps detergent. The receptor protein and ligand concentration was optimized such that no more than 20% of the added radiolabeled ligand was bound to the receptor.
Radiolabeled and unlabeled ligands were added to 100 mcl of the diluted protein at a final ethanol concentration of ≦10%, mixed and incubated overnight on ice to reach binding equilibrium. The following day, 100 mcl of hydroxylapatite slurry (50%) was added to each tube and mixed at 10-minute intervals for 30 minutes. The hydroxylapaptite was collected by centrifugation and then washed three times with Tris-EDTA buffer (50 mM Tris, 1.5 mM EDTA, pH 7.4) containing 0.5% Titron X-100. After the final wash, the pellets were transferred to scintillation vials containing 4 ml of Biosafe II scintillation cocktail, mixed and placed in a scintillation counter. Total binding was determined from the tubes containing only radiolabeled ligand.

D-sufficient CD-1 mice [4] = assay: Bone calcium mobilization, 2nd in vivo study (D-sufficient mice); details: single intraperitoneal injection, two doses, 72 hours; FIG. 5
Procedure: (§2) 6-7 week old female CD-1 mice were purchased from Harlan (Indianapolis, Ind.). The animals were group housed and fed a purified diet containing 0.47% calcium. (Suda et al 1970 J. Nutrition). After a 5-7 day acclimation period, the animals were assigned to treatment groups (n=5-6/group) and given a single dose of the designated analogues by intraperitoneal injection. Blood was collected for serum calcium concentration analyses immediately prior to dose administration and 72 hours following dose delivery. Serum calcium were analyzed as described above.
as §1

D-sufficient CD-1 mice [5] = assay: Bone calcium mobilization, 3rd in vivo study (routes of administration); details: FIG. 6
Source text: as §2, with “groups (n=5/group)” for “groups (n=5-6/group)”, “intraperitoneal injection or oral gavage.” for “intraperitoneal injection.”, “analyses at various timepoints” for “analyses immediately prior to dose administration and 72 hours”, “calcium was” for “calcium were”
as §1

EC50 [2] [nM] | Ki [3] [nM] | VDR binding activity relative to 1,25-(OH)2D3 ([3]; less active than 1,25-(OH)2D3) | Structure (SMILES) | EC50 [1] [nM] | Bone calcium mobilization activity (serum calcium change), overall (D-deficient CD-1 mice) | Transcriptional activity, result in words [1] | Serum calcium change in D-sufficient mice (D-sufficient CD-1 mice [4]) | HL-60 cell differentiation, result in words [2] | VDR binding, result in words [3] | Onset of serum calcium increase compared to 1,25(OH)2D3 (D-sufficient CD-1 mice [5]) | Serum calcium increase by route of administration (D-sufficient CD-1 mice [5]; oral gavage vs. intraperitoneal injection) | Calcemic response 48 hours after the dose (D-deficient CD-1 mice; D-deficient mice, analog doses exceeding thirty times that of the natural hormone, 48 hours)
100 | 30 | 3 orders of magnitude | C[C@H](CCCC(C)(C)O)[C@H]1CC[C@H]2/C(=C/C=C3/C[C@@H](O)C4=CCCO[C@@H]4C3)CCC[C@]12C [REV-A] | 30 |  | weak transcriptional activity; also recorded: much less transcriptional activity than 1α,25-dihydroxyvitamin D3 | no significant increase in serum calcium | considerably less active than 1,25(OH)2D3 |  |  |  | 
1000 | > 10000 |  | C[C@H](CCCC(C)(C)O)[C@H]1CC[C@H]2/C(=C/C=C3\C[C@@H](O)C4=CCCO[C@@H]4C3)CCC[C@]12C [REV-B] |  | considerable bone calcium mobilization activity | essentially no transcriptional activity; also recorded: lacks activity; also recorded: inactive | remarkable in vivo activity of REV-B to raise blood calcium levels | lacks activity in cellular differentiation; also recorded: considerably less active than 1,25(OH)2D3 | does not bind to the VDR; also recorded: little binding activity for VDR | significant delay | Both routes of administration are effective at causing an increase in serum calcium; however, intraperitoneal injection is more effective than oral gavage | markedly more active

Structure (SMILES) | EC50 [2] [nM] | Ki [3] [nM] | VDR binding activity relative to 1,25-(OH)2D3 ([3]; less active than 1,25-(OH)2D3) | EC50 [1] [nM] | Bone calcium mobilization activity (serum calcium change), overall (D-deficient CD-1 mice) | Transcriptional activity, result in words [1] | Serum calcium change in D-sufficient mice (D-sufficient CD-1 mice [4]) | HL-60 cell differentiation, result in words [2] | VDR binding, result in words [3] | Onset of serum calcium increase compared to 1,25(OH)2D3 (D-sufficient CD-1 mice [5]) | Serum calcium increase by route of administration (D-sufficient CD-1 mice [5]; oral gavage vs. intraperitoneal injection) | Calcemic response 48 hours after the dose (D-deficient CD-1 mice; D-deficient mice, analog doses exceeding thirty times that of the natural hormone, 48 hours)
C=C1/C(=C\C=C2/CCC[C@]3(C)[C@@H]([C@H](C)CCCC(C)(C)O)CC[C@@H]23)C[C@@H](O)C[C@@H]1O [1,25(OH)2D3, 1α,25-dihydroxyvitamin D3, reference compound] | 2 |  |  | 0.2 | increased serum calcium levels |  |  |  |  |  |  | 
